From patent US12371428B2 (Exelixis, Inc., priority 2019, dated 2025)

Legend:
[1] = target: Human KDR (residues 790-1356) (Homo sapiens (Human), UniProt P35968); assay: Human KDR kinase assay, HTRF KinEase (Example B-2); type: biochemical
Protocol: (§1) Kinase activity and compound inhibition were also investigated using the HTRF® KinEase assay (Cisbio Cat #62TKOPEB) per manufacturer's instructions. In short, compounds were delivered in 300 nL volumes at 10 different concentrations in DMSO (3% final) to empty 384-well assay plates (Corning cat #3824). A mixture of enzyme, […] biotynlated peptide substrate, and buffer in 10 μL volume was added. The assay was started upon the addition of ATP (at Km). The 10 μL reaction was incubated at room temperature. The reaction was stopped upon the addition of detection buffer containing streptavidin-XL665 ([…]) and TK antibody-Eu3+([…]). After a 60 min incubation at room temperature, the fluorescence at 665 nm and 620 nm was read on an Envision microplate reader (Perkin Elmer).
(§2) Kinase activity normalized to DMSO (100% activity) and reference compound at […] and (0% activity) was calculated using the fluorescence ratio […]. IC50 values were calculated by nonlinear regression analysis using a 4-parameter logistic curve fit in ActivityBase XE (IDBS).
(§3) Example B-2: Human KDR (residues 790-1356; CarnaBio, 0.1 ng/well) was also incubated with enzymatic buffer (Cisbio) supplemented with 5 mM MgCl2, 1 mM MnCl2, and 1 mM DTT. The mixture was added to the pre-plated compounds. The reaction was initiated upon addition of ATP at Km (4.0 μM). The reaction was incubated at room temperature for 40 min and stopped upon the addition of SA-XL665 and TK-antibody both diluted in EDTA-containing kinase detection buffer (Cisbio). The kinase activity was calculated as stated above and the IC50 values were reported.

[2] = target: Human MER (residues 528-999) (Homo sapiens (Human), UniProt Q12866); assay: Human Mer kinase assay, HTRF KinEase (Example C-2); type: biochemical
Human MER (residues 528-999), sequence (Q12866 528-999): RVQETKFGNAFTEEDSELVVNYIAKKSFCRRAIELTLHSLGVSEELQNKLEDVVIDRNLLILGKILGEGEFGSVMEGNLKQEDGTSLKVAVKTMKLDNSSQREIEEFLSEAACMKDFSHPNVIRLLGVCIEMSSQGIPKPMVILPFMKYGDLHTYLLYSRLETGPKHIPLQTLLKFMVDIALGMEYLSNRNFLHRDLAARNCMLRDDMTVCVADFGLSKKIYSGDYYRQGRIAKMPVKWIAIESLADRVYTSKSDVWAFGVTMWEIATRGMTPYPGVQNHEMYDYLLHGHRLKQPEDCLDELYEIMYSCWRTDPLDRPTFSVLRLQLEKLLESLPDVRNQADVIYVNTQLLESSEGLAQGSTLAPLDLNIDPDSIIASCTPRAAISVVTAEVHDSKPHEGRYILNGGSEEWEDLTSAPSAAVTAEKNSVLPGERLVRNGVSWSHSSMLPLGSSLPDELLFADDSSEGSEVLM
Protocol: as §1, §2
Example C-2: Human MER (residues 528-999; CarnaBio, 1 ng/well) was also incubated with enzymatic buffer (Cisbio) supplemented with 5 mM MgCl2 and 1 mM DTT. The mixture was added to the pre-plated compounds. The reaction was initiated upon addition of ATP at Km (40 μM). The reaction was incubated at room temperature for 60 min and stopped upon the addition of SA-XL665 and TK-antibody both diluted in EDTA-containing kinase detection buffer (Cisbio). The kinase activity was calculated as stated above and the IC50 values were reported.

[3] = target: Human MET (residues 956-1390) (Homo sapiens (Human), UniProt P08581); assay: Human Met kinase assay, HTRF KinEase (Example D-2); type: biochemical; conditions: protocol of Example D-2 (other compounds); read-out: c-Met IC50
Protocol: as §1, §2
as §3, with “D-2:” for “B-2:”, “MET” for “KDR”, “956-1390;” for “790-1356;”, “DTT” for “MnCl2,”, “MnCl2.” for “DTT.”, “The reaction was initiated upon addition of ATP at Km (4.0 μM).” left out

[4] = target: Met (phospho-Met, HGF-stimulated PC-3 prostate cancer cells) (Homo sapiens (Human), UniProt P08581); assay: Met autophosphorylation ELISA in PC-3 cells (Example F); type: cell-based; conditions: cellular activity; Met autophosphorylation ELISA in PC-3 cells; read-out: c-Met IC50
Met (phospho-Met, HGF-stimulated PC-3 prostate cancer cells), sequence (P08581 25-1390): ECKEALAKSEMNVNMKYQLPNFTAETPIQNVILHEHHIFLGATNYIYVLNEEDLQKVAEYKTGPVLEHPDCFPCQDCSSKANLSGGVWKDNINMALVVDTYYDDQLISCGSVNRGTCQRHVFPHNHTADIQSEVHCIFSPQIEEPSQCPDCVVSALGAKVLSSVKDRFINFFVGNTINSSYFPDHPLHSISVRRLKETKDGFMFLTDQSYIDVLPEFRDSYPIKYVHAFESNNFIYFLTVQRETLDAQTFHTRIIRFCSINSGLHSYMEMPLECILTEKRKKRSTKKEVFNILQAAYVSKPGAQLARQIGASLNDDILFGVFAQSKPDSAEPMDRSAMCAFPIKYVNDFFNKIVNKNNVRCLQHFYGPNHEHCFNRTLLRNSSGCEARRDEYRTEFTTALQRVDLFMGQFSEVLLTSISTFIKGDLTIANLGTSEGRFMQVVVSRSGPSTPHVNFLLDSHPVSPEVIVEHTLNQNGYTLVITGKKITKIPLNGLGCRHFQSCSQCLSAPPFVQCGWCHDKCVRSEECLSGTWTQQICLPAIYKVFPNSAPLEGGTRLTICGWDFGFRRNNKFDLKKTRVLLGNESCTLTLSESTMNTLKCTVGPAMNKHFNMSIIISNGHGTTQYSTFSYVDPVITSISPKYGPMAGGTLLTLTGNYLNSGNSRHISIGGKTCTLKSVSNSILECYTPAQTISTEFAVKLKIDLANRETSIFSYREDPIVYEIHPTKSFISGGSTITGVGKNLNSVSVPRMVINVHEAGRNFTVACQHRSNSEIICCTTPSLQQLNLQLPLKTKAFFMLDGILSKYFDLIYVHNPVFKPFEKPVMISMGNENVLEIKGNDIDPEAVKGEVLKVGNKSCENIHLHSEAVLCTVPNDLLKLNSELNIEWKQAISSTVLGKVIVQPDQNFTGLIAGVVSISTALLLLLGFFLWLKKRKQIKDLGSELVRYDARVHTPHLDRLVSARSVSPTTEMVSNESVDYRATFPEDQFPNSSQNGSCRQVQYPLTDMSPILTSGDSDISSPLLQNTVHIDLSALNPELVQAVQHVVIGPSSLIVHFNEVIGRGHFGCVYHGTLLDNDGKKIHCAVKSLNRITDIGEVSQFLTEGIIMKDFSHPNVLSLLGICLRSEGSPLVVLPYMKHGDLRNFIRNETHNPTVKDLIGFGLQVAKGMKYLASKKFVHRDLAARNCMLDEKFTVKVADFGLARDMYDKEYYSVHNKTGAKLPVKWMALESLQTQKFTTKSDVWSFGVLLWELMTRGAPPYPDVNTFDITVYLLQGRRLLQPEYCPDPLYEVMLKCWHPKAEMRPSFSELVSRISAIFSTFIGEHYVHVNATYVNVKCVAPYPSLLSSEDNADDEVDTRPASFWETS
Procedure, shortened: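 Compounds were tested on HGF-stimulated PC-3 cells. After 24 h culture and 3 h serum starvation, cells got compound for 1 h and 100 ng/mL HGF for 10 min, and Met tyrosine phosphorylation was measured by ELISA.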

[5] = target: KDR (phospho-KDR, VEGF165-stimulated HUVEC cells) (Homo sapiens (Human), UniProt P35968); assay: KDR autophosphorylation ELISA in HUVEC cells (Example G); type: cell-based; conditions: cellular activity; KDR autophosphorylation ELISA in HUVEC cells
KDR (phospho-KDR, VEGF165-stimulated HUVEC cells), sequence (P35968 20-1356): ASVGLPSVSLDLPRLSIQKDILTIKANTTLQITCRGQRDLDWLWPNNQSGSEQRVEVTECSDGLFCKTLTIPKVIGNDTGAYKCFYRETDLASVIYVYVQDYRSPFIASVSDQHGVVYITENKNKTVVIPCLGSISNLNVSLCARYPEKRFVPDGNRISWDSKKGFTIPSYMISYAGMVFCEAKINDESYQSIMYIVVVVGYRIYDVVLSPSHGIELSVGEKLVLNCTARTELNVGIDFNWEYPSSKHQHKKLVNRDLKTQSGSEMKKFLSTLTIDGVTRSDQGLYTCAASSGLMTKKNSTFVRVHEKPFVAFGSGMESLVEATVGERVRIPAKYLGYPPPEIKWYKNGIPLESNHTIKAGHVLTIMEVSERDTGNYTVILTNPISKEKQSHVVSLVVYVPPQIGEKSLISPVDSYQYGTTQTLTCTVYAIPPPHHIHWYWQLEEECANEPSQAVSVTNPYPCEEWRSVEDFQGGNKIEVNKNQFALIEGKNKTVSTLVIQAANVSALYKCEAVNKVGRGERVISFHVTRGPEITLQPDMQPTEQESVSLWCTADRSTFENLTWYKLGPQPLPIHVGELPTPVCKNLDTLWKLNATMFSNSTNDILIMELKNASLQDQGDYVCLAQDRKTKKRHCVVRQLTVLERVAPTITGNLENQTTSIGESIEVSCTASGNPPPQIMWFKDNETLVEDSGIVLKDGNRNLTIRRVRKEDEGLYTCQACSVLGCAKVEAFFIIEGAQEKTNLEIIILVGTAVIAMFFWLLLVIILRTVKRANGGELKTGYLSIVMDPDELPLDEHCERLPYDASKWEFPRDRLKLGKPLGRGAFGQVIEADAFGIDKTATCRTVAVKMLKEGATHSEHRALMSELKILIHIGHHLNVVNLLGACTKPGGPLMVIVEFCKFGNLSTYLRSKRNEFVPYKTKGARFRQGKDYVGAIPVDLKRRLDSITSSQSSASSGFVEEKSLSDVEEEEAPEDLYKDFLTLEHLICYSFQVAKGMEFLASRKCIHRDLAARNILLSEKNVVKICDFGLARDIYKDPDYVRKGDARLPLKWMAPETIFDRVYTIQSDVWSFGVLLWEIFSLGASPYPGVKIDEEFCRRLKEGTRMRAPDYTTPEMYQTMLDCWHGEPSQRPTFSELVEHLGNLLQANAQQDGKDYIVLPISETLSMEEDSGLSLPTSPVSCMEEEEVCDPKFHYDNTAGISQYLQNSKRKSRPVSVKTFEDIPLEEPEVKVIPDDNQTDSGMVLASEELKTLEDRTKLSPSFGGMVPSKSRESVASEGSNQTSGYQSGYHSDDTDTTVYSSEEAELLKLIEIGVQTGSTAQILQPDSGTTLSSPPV
Procedure, shortened: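 Read-out: phospho-KDR in cell lysates by DuoSet IC ELISA, normalised between VEGF-stimulated DMSO wells (100%) and unstimulated wells (0%). Human endothelial cells were starved overnight in serum-free medium, exposed to compound for 1 h, and then pulsed with 100 ng/mL VEGF165 for 5 min.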

[6] = target: Mer (phospho-Mer, MERTK-transfected 293A cells) (Homo sapiens (Human), UniProt Q12866); assay: Mer autophosphorylation ELISA in transient transfected 293A cells (Example H); type: cell-based; conditions: cellular activity; Mer autophosphorylation ELISA in transient transfected 293A cells
Mer (phospho-Mer, MERTK-transfected 293A cells), sequence (Q12866 21-999): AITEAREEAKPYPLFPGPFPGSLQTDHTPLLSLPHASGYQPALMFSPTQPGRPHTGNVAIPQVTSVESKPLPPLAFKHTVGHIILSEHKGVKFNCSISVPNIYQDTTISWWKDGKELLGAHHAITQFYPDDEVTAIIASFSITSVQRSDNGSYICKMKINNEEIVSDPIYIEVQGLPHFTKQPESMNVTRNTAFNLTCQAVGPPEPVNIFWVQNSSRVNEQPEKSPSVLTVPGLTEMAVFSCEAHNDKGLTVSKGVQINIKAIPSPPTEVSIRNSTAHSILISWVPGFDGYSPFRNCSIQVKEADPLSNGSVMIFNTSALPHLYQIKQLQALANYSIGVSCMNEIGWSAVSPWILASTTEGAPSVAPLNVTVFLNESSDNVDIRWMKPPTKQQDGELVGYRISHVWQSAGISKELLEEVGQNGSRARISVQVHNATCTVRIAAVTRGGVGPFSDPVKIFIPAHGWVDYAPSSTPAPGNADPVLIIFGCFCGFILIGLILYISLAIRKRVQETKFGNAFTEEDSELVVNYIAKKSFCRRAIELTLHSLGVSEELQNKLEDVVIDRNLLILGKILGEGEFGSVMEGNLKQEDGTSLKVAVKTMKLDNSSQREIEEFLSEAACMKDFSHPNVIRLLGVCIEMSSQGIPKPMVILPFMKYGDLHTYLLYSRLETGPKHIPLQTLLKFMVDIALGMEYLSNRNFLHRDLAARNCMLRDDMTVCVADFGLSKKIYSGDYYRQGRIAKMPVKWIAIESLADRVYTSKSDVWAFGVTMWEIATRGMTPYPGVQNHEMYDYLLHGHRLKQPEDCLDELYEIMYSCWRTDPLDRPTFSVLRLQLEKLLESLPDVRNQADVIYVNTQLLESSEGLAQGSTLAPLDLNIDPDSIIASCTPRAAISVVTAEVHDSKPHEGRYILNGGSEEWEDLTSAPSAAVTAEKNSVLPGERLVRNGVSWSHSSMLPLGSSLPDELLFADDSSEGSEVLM
Procedure, shortened: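 MERTK-transfected 293A; 8-pt dose, 1 h, serum-free, 0.3% DMSO. Cold lysis with orthovanadate and protease/phosphatase inhibitors. Phospho-Mer by DuoSet IC ELISA vs phospho-Mer standard. IC50: 4-PL fit; DMSO = 100%, reference inhibitor = 0%.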

[7] = protocol of Example B-2 (other compounds)
[8] = protocol of Example C-2 (other compounds)

Human KDR (residues 790-1356), sequence (P35968 790-1356): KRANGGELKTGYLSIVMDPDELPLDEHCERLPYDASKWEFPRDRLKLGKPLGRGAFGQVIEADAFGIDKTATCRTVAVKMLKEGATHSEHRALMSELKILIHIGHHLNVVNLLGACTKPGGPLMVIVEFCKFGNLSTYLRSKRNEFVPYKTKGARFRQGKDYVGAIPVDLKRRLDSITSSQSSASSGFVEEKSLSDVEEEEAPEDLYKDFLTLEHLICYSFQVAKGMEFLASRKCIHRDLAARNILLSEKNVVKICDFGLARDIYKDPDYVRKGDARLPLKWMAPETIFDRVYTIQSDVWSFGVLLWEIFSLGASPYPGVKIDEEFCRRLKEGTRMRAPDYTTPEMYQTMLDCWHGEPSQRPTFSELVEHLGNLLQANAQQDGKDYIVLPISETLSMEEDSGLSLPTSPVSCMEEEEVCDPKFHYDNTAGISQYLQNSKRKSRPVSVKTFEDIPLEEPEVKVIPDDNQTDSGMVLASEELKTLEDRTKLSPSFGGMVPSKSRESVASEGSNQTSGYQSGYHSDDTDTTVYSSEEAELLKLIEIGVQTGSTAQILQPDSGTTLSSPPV

SMILES	IC50 [1, 7] [nM]	IC50 [2, 8] [nM]	IC50 [3] [nM]	IC50 [4] [nM]	IC50 [5] [nM]	IC50 [6] [nM]	IC50 ([1]; protocol of Example B-2) [nM]	IC50 ([2]; protocol of Example C-2) [nM]
COc1cc2nccc(Oc3ccc(NC(=O)C4=C5CCCN5CC(c5ccc(F)cc5)C4=O)cc3F)c2nc1OC (single isomer, unassigned; enantiomer 2) [Compound 375, N-[4-[(6,7-dimethoxy-1,5-naphthyridin-4-yl)oxy]-3-fluorophenyl]-6-(4-fluorophenyl)-7-oxo-2,3,5,6-tetrahydro-1H-indolizine-8-carboxamide, enantiomer 2]	> 300	< 100	< 100	–	–	–	–	–
COc1cc2nccc(Oc3ccc(NC(=O)c4c(C)c(Cl)c(C)n(-c5ccc(F)cc5)c4=O)cc3F)c2nc1OC [Compound 308, 5-Chloro-N-[4-[(6,7-dimethoxy-1,5-naphthyridin-4-yl)oxy]-3-fluorophenyl]-1-(4-fluorophenyl)-4,6-dimethyl-2-oxopyridine-3-carboxamide]	> 300	< 100	–	< 100	< 100	< 100	–	–
COc1cnc2c(Oc3ccc(NC(=O)c4c(C)c(Cl)c(C)n(-c5ccc(F)cc5)c4=O)cc3F)ccnc2c1 [Compound 309, 5-Chloro-N-[3-fluoro-4-[(7-methoxy-1,5-naphthyridin-4-yl)oxy]phenyl]-1-(4-fluorophenyl)-4,6-dimethyl-2-oxopyridine-3-carboxamide]	> 300	< 100	–	< 100	> 300	< 100	–	–
COc1cnc2c(Oc3ccc(NC(=O)c4c(C)c(Cl)c(C)n(-c5ccc(F)cc5)c4=O)cc3)ccnc2c1 [Compound 310, 5-Chloro-1-(4-fluorophenyl)-N-[4-[(7-methoxy-1,5-naphthyridin-4-yl)oxy]phenyl]-4,6-dimethyl-2-oxopyridine-3-carboxamide]	> 300	100 to 300	–	< 100	> 300	< 100	–	–
CCOc1c(C)cn(-c2ccc(F)cc2)c(=O)c1C(=O)Nc1ccc(Oc2ccnc3cc(OC)c(OC)nc23)c(F)c1 [Compound 371, N-[4-[(6,7-dimethoxy-1,5-naphthyridin-4-yl)oxy]-3-fluorophenyl]-4-ethoxy-1-(4-fluorophenyl)-5-methyl-2-oxopyridine-3-carboxamide]	< 100	< 100	–	< 100	< 100	< 100	–	–
COc1cc2nccc(Oc3ccc(NC(=O)c4c(OC)c(C)cn(-c5ccc(F)cc5)c4=O)cc3F)c2nc1OC [Compound 372, N-[4-[(6,7-dimethoxy-1,5-naphthyridin-4-yl)oxy]-3-fluorophenyl]-1-(4-fluorophenyl)-4-methoxy-5-methyl-2-oxopyridine-3-carboxamide]	< 100	< 100	–	< 100	< 100	< 100	–	–
CNC(=O)Cc1cc2c(Oc3ccc(NC(=O)c4cnc(C)c(-c5ccc(F)cc5)c4O)cc3F)ccnc2cc1OC [Compound 376, N-[3-fluoro-4-[7-methoxy-6-[2-(methylamino)-2-oxoethyl]quinolin-4-yl]oxyphenyl]-5-(4-fluorophenyl)-4-hydroxy-6-methylpyridine-3-carboxamide]	< 100	< 100	–	< 100	< 100	< 100	–	–
COc1ccc2nccc(Oc3ccc(NC(=O)c4cnc(C)n(-c5ccc(F)cc5)c4=O)cc3)c2n1 [Compound 385, 1-(4-fluorophenyl)-N-[4-[(6-methoxy-1,5-naphthyridin-4-yl)oxy]phenyl]-2-methyl-6-oxopyrimidine-5-carboxamide]	> 300	< 100	–	< 100	> 300	< 100	–	–
COc1cc2nccc(Oc3ccc(NC(=O)c4ccnn(-c5ccc(F)cc5C)c4=O)cc3F)c2nc1OC [Compound 527, N-[4-[(6,7-dimethoxy-1,5-naphthyridin-4-yl)oxy]-3-fluorophenyl]-2-(4-fluoro-2-methylphenyl)-3-oxopyridazine-4-carboxamide]	–	–	–	< 100	< 100	< 100	100 to 300	< 100
COc1cc2nccc(Oc3ccc(NC(=O)c4ccnn(-c5ccc(F)cc5C)c4=O)cc3)c2nc1OC [Compound 528, N-[4-[(6,7-dimethoxy-1,5-naphthyridin-4-yl)oxy]phenyl]-2-(4-fluoro-2-methylphenyl)-3-oxopyridazine-4-carboxamide]	–	–	–	< 100	< 100	< 100	100 to 300	< 100
COc1cnc2c(Oc3ccc(NC(=O)c4ccnn(-c5ccc(F)cc5C)c4=O)cc3F)ccnc2c1 [Compound 529, N-[3-fluoro-4-[(7-methoxy-1,5-naphthyridin-4-yl)oxy]phenyl]-2-(4-fluoro-2-methylphenyl)-3-oxopyridazine-4-carboxamide]	–	–	–	< 100	< 100	< 100	> 300	100 to 300
CNC(=O)c1c(-c2ccc(F)cc2)c(=O)c(C(=O)Nc2ccc(Oc3ccnc4cc(OC)c(OC)nc34)c(F)c2)cn1C [Compound 563, 5-N-[4-[(6,7-Dimethoxy-1,5-naphthyridin-4-yl)oxy]-3-fluorophenyl]-3-(4-fluorophenyl)-2-N,1-dimethyl-4-oxopyridine-2,5-dicarboxamide]	–	–	–	< 100	> 300	< 100	> 300	< 100
COc1cnc2c(Oc3ccc(NC(=O)c4nn(C(C)C)c(C)c(-c5ccc(F)cc5)c4=O)cc3F)ccnc2c1 [Compound 566, N-[3-Fluoro-4-[(7-methoxy-1,5-naphthyridin-4-yl)oxy]phenyl]-5-(4-fluorophenyl)-6-methyl-4-oxo-1-propan-2-ylpyridazine-3-carboxamide]	–	–	–	< 100	> 300	< 100	> 300	< 100
COc1cnc2c(Oc3ccc(NC(=O)c4nnc(C)c(-c5ccc(F)cc5)c4OC(C)C)cc3F)ccnc2c1 [Compound 567, N-[3-Fluoro-4-[(7-methoxy-1,5-naphthyridin-4-yl)oxy]phenyl]-5-(4-fluorophenyl)-6-methyl-4-propan-2-yloxypyridazine-3-carboxamide]	–	–	–	< 100	< 100	< 100	< 100	< 100
CCOc1c(C(=O)Nc2ccc(Oc3ccnc4cc(OC)c(OC)nc34)c(F)c2)nnc(C)c1-c1ccc(F)cc1 [Compound 569, N-[4-[(6,7-Dimethoxy-1,5-naphthyridin-4-yl)oxy]-3-fluorophenyl]-4-ethoxy-5-(4-fluorophenyl)-6-methylpyridazine-3-carboxamide]	–	–	–	< 100	< 100	< 100	< 100	< 100
